Experimental data as given in patent US10723723B2, “Substituted bicycle heterocyclic derivatives useful as ROMK channel inhibitors” (BRISTOL-MYERS SQUIBB COMPANY, priority 2016, dated 2020).

Tests used:
hERG channels = hERG channels (Homo sapiens (Human), UniProt Q12809); test: hERG Manual Patch Clamp Assay (HEK 293 cells stably expressing hERG channels); type: cell-based; details: human, HEK 293 cells stably expressing hERG channels, pH 7.4
Description: hERG electrophysiology assay: The experimental compounds were assessed for hERG activity on HEK 293 cells stably expressing hERG channels using patch clamp technique. Coverslips plated with hERG expressing cells were placed in the experimental chamber and were perfused with a solution composed of (in mM): 140 NaCl, 4 KCl, 1.8 CaCl2), 1 MgCl2, 10 Glucose, 10 HEPES (pH 7.4, NaOH) at room temperature. Borosilicate patch pipettes had tip resistances of 2-4 Mohms when filled with an internal solution containing: 130 KCl, 1 MgCl2, 1 CaCl2), 10 EGTA, 10 HEPES, 5 ATP-K2 (pH 7.2, KOH). The cells were clamped at −80 mV in whole cell configuration using an Axopatch 200B (Axon instruments, Union City, Calif.) patch clamp amplifier controlled by pClamp (Axon instruments) software. Upon formation of a gigaseal, the following voltage protocol was repeatedly (0.05 Hz) applied to record tail currents: depolarization step from −80 mV to +20 mV for 2 seconds followed by a hyperpolarization step to −65 mV (3 seconds) to elicit tail currents. Compounds were applied after stabilization of tail current. First, tail currents were recorded in presence of extracellular solution alone (control) and subsequently, in extracellular solution containing increasing compound concentrations. Each compound concentration was applied for 2-5 minutes. The percentage inhibition at each concentration was calculated as reduction in peak tail current with respect to the peak tail current recorded in the presence of control solution. Data analysis was performed in a custom made template. The percent inhibitions at different concentrations were plotted to obtain a concentration response curve, which was subsequently fitted with a four parameter equation to calculate hERG IC50 value.
A lower hERG % Inhibition value indicates less inhibition of the hERG current

hROMK (human Kir1.1) = hROMK (human Kir1.1) (Homo sapiens (Human), UniProt P48048); test: Thallium Flux Assay (FluxOR, CHO T-Rex hROMK stable cell line); type: cell-based; details: CHO T-Rex hROMK cells, 10-point concentration response curve; read-out: Human ROMK TH Flux IC50
Sequence of hROMK (human Kir1.1) (P48048 whole entry): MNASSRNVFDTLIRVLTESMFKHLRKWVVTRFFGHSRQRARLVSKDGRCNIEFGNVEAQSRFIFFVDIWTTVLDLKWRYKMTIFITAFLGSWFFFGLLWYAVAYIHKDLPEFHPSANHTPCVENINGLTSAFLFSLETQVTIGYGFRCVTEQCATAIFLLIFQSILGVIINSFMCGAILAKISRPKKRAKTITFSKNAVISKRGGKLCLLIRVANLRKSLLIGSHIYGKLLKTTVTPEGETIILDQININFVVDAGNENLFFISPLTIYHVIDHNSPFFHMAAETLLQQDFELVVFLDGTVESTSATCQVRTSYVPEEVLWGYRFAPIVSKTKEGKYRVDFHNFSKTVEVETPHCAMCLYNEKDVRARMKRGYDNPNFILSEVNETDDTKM

Sequence of hERG channels (Q12809 whole entry): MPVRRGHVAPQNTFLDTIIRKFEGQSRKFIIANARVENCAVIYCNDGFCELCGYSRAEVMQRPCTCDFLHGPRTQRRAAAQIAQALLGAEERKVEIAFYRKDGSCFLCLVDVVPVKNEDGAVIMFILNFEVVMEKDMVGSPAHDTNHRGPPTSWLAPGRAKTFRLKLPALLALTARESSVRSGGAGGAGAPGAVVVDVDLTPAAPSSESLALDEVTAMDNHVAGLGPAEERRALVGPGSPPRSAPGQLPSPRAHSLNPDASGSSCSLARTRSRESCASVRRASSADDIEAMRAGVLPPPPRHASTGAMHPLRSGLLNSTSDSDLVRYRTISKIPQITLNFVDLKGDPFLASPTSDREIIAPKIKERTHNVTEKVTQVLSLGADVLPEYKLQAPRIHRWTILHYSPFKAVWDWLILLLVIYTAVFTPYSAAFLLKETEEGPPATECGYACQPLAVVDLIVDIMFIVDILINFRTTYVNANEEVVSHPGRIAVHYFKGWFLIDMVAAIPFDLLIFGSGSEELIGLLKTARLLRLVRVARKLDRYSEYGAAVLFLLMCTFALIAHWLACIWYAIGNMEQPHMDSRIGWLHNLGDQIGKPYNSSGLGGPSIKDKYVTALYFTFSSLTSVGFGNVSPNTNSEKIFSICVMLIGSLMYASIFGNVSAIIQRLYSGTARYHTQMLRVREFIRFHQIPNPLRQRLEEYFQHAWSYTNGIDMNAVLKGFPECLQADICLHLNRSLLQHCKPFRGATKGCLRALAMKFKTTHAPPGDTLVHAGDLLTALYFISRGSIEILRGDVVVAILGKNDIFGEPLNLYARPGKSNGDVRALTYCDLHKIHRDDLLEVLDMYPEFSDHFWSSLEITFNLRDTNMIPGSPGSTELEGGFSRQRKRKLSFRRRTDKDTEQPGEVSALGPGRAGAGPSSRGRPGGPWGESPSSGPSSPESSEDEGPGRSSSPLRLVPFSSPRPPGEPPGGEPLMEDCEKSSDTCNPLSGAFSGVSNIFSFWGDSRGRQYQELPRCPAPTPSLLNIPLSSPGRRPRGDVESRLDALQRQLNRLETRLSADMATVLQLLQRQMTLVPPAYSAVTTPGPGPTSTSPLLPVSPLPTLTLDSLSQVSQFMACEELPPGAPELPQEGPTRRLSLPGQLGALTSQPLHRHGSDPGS

| SMILES | inhibition at 1 µM (hERG channels) [%] | IC50 (hROMK (human Kir1.1)) [nM] |
| --- | --- | --- |
| Cc1cc(-c2ccc(CNCC(O)c3ccc4c(c3C)COC4=O)cn2)ncc1C#N (single isomer, unassigned) [Example 4-I, 5′-(((2-hydroxy-2-(4-methyl-1-oxo-1,3-dihydroisobenzofuran-5-yl)ethyl)amino)methyl)-4-methyl-[2,2′-bipyridine]-5-carbonitrile] | 22 |  |
| Cc1c([C@@H](O)CNCc2ccc(-n3cc(C#N)c(C4CC4)n3)nc2)ccc2c1COC2=O [Example 116, (R)-3-cyclopropyl-1-(5-(((2-hydroxy-2-(4-methyl-1-oxo-1,3-dihydroisobenzofuran-5-yl)ethyl)amino)methyl)pyridin-2-yl)-1H-pyrazole-4-carbonitrile] | 76 |  |
| Cc1c(C(CO)NCCc2cccc(-c3ccc(C#N)c(F)c3)c2)ccc2c1COC2=O (single isomer, unassigned) [Example 15-I, 3-fluoro-3′-(2-((2-hydroxy-1-(4-methyl-1-oxo-1,3-dihydroisobenzofuran-5-yl)ethyl)amino)ethy)-[1,1′-biphenyl]-4-carbonitrile] |  | 2000 |
| CN(Cc1ccc(-c2ccc(C#N)c(F)c2)nc1)CC(O)c1ccc2oc(=O)n(C)c2c1 (single isomer, unassigned) [Example 24-I, 2-fluoro-4-(5-(((2-hydroxy-2-(3-methyl-2-oxo-2,3-dihydrobenzo[d]oxazol-5-yl)ethyl)(methyl)amino)methyl)pyridin-2-yl)benzonitrile] |  | 2400 |
| Cc1cc(-c2ccc(CN(C)CC(O)c3ccc4c(c3C)COC4=O)cc2)ncc1C#N (single isomer, unassigned) [Example 31-II, 6-(4-(((2-hydroxy-2-(4-methyl-1-oxo-1,3-dihydroisobenzofuran-5-yl)ethyl)(methyl)amino)methyl)phenyl)-4-methylnicotinonitrile] |  | 370 |
| Cc1cc(-n2cc(CNCC(C)(O)c3ccc4c(c3C)COC4=O)cn2)ncc1C#N (single isomer, unassigned) [Example 170-I, 6-(4-(((2-hydroxy-2-(4-methyl-1-oxo-1,3-dihydroisobenzofuran-5-yl)propyl)amino)methyl)-1H-pyrazol-1-yl)-4-methylnicotinonitrile] |  | 160 |
| Cc1c(C(O)CN(C)Cc2ccc(-c3ccc(C#N)c(F)c3)cc2)ccc2c1COC2=O (single isomer, unassigned) [Example 27-II, 3-fluoro-4′-(((2-hydroxy-2-(4-methyl-1-oxo-1,3-dihydroisobenzofuran-5-yl)ethyl)(methyl)amino)methyl)-[1,1′-biphenyl]-4-carbonitrile] |  | 240 |
| CN(Cc1ccc(-c2ccc3oc(=O)n(C)c3c2)nc1)CC(O)c1ccc2oc(=O)n(C)c2c1 (single isomer, unassigned) [Example 5-I] |  | 1500 |
| CCc1nn(-c2ccc(CNC[C@H](O)c3ccc4c(c3C)COC4=O)cn2)cc1C#N [Example 103, (R)-3-ethyl-1-(5-(((2-hydroxy-2-(4-methyl-1-oxo-1,3-dihydroisobenzofuran-5-yl)ethyl)amino)methyl)pyridin-2-yl)-1H-pyrazole-4-carbonitrile] |  | 55.2 |
| Cc1c([C@@H](O)CNCc2cnn(-c3cc(N4CCOC4=O)ccn3)c2)ccc2c1COC2=O [Example 143, (R)-3-(2-(4-(((2-hydroxy-2-(4-methyl-1-oxo-1,3-dihydroisobenzofuran-5-yl)ethyl)amino)methyl)-1H-pyrazol-1-yl)pyridin-4-yl)oxazolidin-2-one] |  | 1000 |
| Cc1cc(-n2[nH]cc(CNC[C@H](O)c3ccc4c(c3C)COC4=O)c2=O)ncc1C#N [Example 36, (R)-6-(4-(((2-hydroxy-2-(4-methyl-1-oxo-1,3-dihydroisobenzofuran-5-yl)ethyl)amino)methyl)-5-oxo-2,5-dihydro-1H-pyrazol-1-yl)-4-methylnicotinonitrile] |  | 390 |
| Cc1cc(C#N)cnc1-n1cc(CNC[C@H](O)c2ccc3c(c2C)COC3=O)cn1 [Example 78, (R)-6-(4-(((2-hydroxy-2-(4-methyl-1-oxo-1,3-dihydroisobenzofuran-5-yl)ethyl)amino)methyl)-1H-pyrazol-1-yl)-5-methylnicotinonitrile] |  | 440 |
| Cc1cc(-c2cnc(CNC[C@H](O)c3ccc4c(c3C)COC4=O)nc2)ncc1C#N [Example 40, (R)-6-(2-(((2-hydroxy-2-(4-methyl-1-oxo-1,3-dihydroisobenzofuran-5-yl)ethyl)amino)methyl)pyrimidin-5-yl)-4-methylnicotinonitrile] |  | 340 |
| CCn1c(=O)oc2ccc(-n3cc(CNC[C@H](O)c4ccc5c(c4C)COC5=O)cn3)cc21 [Example 125, (R)-3-ethyl-5-(4-(((2-hydroxy-2-(4-methyl-1-oxo-1,3-dihydroisobenzofuran-5-yl)ethyl)amino)methyl)-1H-pyrazol-1-yl)benzo[d]oxazol-2(3H)-one] |  | 390 |
| COc1cc(-n2cnc(C)c2)ncc1CNC[C@H](O)c1ccc2c(c1C)COC2=O [Example 89, (R)-5-(1-hydroxy-2-(((4-methoxy-6-(4-methyl-1H-imidazol-1-yl)pyridin-3-yl)methyl)amino)ethyl)-4-methylisobenzofuran-1(3H)-one] |  | 92 |
| Cc1c([C@@H](O)CNCc2ccc(-n3cc(C(N)=O)cn3)nc2)ccc2c1COC2=O [Example 154, (R)-1-(5-(((2-hydroxy-2-(4-methyl-1-oxo-1,3-dihydroisobenzofuran-5-yl)ethyl)amino)methyl)pyridin-2-yl)-1H-pyrazole-4-carboxamide] |  | 1000 |
| CN(Cc1ccc(-c2ccc(C#N)c(F)c2)nc1)CC(O)c1ccc2oc(=O)n(C)c2c1 (single isomer, unassigned) [Example 24-II, 2-fluoro-4-(5-(((2-hydroxy-2-(3-methyl-2-oxo-2,3-dihydrobenzo[d]oxazol-5-yl)ethyl)(methyl)amino)methyl)pyridin-2-yl)benzonitrile] |  | 2400 |
| Cc1c(C(O)CN(C)Cc2cnc(-n3ncc4c(C#N)cccc43)nc2)ccc2c1COC2=O (single isomer, unassigned) [Example 18-I, 1-(5-(((2-hydroxy-2-(4-methyl-1-oxo-1,3-dihydroisobenzofuran-5-yl)ethyl)(methyl)amino)methyl)pyrimidin-2-yl)-1H-indazole-4-carbonitrile] |  | 230 |
| Cc1c([C@@H](O)CNCc2cnn(-c3ccc4oc(=O)n(C)c4n3)c2)ccc2c1COC2=O [Example 145, (R)-5-(4-(((2-hydroxy-2-(4-methyl-1-oxo-1,3-dihydroisobenzofuran-5-yl)ethyl)amino)methyl)-1H-pyrazol-1-yl)-3-methyloxazolo[4,5-b]pyridin-2(3H)-one] |  | 130 |
| Cc1c(C(O)CN(C)Cc2ccc(-n3ccc4c(C#N)cccc43)nc2)ccc2c1COC2=O (single isomer, unassigned) [Example 25-II, 1-(5-(((2-hydroxy-2-(4-methyl-1-oxo-1,3-dihydroisobenzofuran-5-yl)ethyl)(methyl)amino)methyl)pyridin-2-yl)-1H-indole-4-carbonitrile] |  | 520 |
| Cc1cc(-n2cc(CNC[C@@H](c3ccc4c(c3C)COC4=O)N3CCCS3(=O)=O)cn2)ncc1C#N [Example 66, (R)-6-(4-(((2-(1,1-dioxidoisothiazolidin-2-yl)-2-(4-methyl-1-oxo-1,3-dihydroisobenzofuran-5-yl)ethyl)amino)methyl)-1H-pyrazol-1-yl)-4-methylnicotinonitrile] |  | 260 |
| Cc1cn(-c2cc(C)c(CNC[C@H](O)c3ccc4c(c3C)COC4=O)cn2)cn1 [Example 76, (R)-5-(1-hydroxy-2-(((4-methyl-6-(4-methyl-1H-imidazol-1-yl)pyridin-3-yl)methyl)amino)ethyl)-4-methylisobenzofuran-1(3H)-one] |  | 81 |
| Cc1c(C(O)CN(C)Cc2ccc(-n3ccc4c(C#N)cccc43)nc2)ccc2c1COC2=O (single isomer, unassigned) [Example 25-I, 1-(5-(((2-hydroxy-2-(4-methyl-1-oxo-1,3-dihydroisobenzofuran-5-yl)ethyl)(methyl)amino)methyl)pyridin-2-yl)-1H-indole-4-carbonitrile] |  | 240 |
| Cc1c(C(O)CNCc2ccc(-c3ccc(C#N)c(F)c3)cc2)ccc2c1COC2=O (single isomer, unassigned) [Example 10-II, 3-fluoro-4′-(((2-hydroxy-2-(4-methyl-1-oxo-1,3-dihydroisobenzofuran-5-yl)ethyl)amino)methyl)-[1,1′-biphenyl]-4-carbonitrile] |  | 140 |
| Cc1c([C@@H](O)CNCc2cnn(-c3ccc4nncn4n3)c2)ccc2c1COC2=O [Example 79, (R)-5-(2-(((1-([1,2,4]triazolo[4,3-b]pyridazin-6-yl)-1H-pyrazol-4-yl)methyl)amino)-1-hydroxyethyl)-4-methylisobenzofuran-1(3H)-one] |  | 530 |
| Cc1cc(-c2nc(CNC[C@H](O)c3ccc4c(c3C)COC4=O)n(C)n2)ncc1C#N [Example 42, (R)-6-(5-(((2-hydroxy-2-(4-methyl-1-oxo-1,3-dihydroisobenzofuran-5-yl)ethyl)amino)methyl)-1-methyl-1H-1,2,4-triazol-3-yl)-4-methylnicotinonitrile] |  | 855 |
| Cc1cn(-c2ncc(CNC[C@H](O)c3ccc4c(c3C)COC4=O)cc2F)cn1 (single isomer, unassigned) [Example 83] |  | 46 |
| Cc1c([C@@H](O)CNCc2cnn(-c3cc(OC(C)C)c(C#N)cn3)c2)ccc2c1COC2=O [Example 157, (R)-6-(4-(((2-hydroxy-2-(4-methyl-1-oxo-1,3-dihydroisobenzofuran-5-yl)ethyl)amino)methyl)-1H-pyrazol-1-yl)-4-isopropoxynicotinonitrile] |  | 31 |
| Cc1cc(-n2cc(CNC[C@H](O)c3ccc4c(c3C)COC4=O)cn2)cc(C)n1 [Example 164, (R)-5-(2-(((1-(2,6-dimethylpyridin-4-yl)-1H-pyrazol-4-yl)methyl)amino)-1-hydroxyethyl)-4-methylisobenzofuran-1(3H)-one] |  | 280 |
